Laboratory results: article PMC5830763, “Discovery of benzothiazolylquinoline conjugates as novel human A3 receptor antagonists: biological evaluations and molecular docking studies” (Royal Society Open Science, 2018)
Values joined by “and” are separate entries in the source; they are usually repeats but may differ in a detail not shown here. Equal entries are not always repeated.

Tests used:
hA1AR = target: T1, hA1AR (Homo sapiens, UniProt P30542); assay: Displacement of specific [3H]CCPA binding at hA1AR expressed in CHO cells; settings: [3H]-CCPA displacement, n = 3–6, read-out: Ki hA1 (95% CI)
T1 sequence (P30542 1-326): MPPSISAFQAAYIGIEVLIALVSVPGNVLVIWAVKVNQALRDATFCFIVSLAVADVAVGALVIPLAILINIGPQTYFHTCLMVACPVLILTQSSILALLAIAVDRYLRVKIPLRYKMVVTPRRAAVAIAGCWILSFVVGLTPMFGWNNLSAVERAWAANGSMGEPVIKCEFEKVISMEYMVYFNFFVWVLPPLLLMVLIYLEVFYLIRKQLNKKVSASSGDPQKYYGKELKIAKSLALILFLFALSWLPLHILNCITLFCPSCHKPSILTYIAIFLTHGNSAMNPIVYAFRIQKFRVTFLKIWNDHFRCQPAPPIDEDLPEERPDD
Text: (§1) The receptor binding affinities of the synthesized benzothiazolylquinoline derivatives (6a-l) are recapitulated in table 2. The binding affinity of the antagonist was estimated by measuring the displacement of selective radioligands which were formerly bound to the receptor expressed (Chinese hamster ovary cells (CHO) for hA1AR, hA2AAR and hA3AR) at the surface of the cell. In this particular assay, the displacement of: (i) specific [3H] CCPA (2-chloro-N(6)-cyclopentyladenosine) binding at hA1AR, (ii) specific [3H] NECA (5'-N-ethylcarboxamidoadenosine) binding at the hA2AAR, and (iii) [3H] HEMADO (2-(1-hexynyl)-N^6-methyladenosine) at the hA3AR were evaluated. […] Ki (dissociation constant) value of the data was calculated using the Cheng and Prusoff equation [49], with geometric means of at least three experiments including 95% confidence intervals. […] Selectivity of this compound at hA3 with respect to hA1 and hA2 has also been reduced to some extent.
(§2) The human A1, A2A, A2B, and A3ARs were transfected in CHO cells based on the previously reported method. The cells were grown adherently and maintained in Dulbecco's modified Eagle's medium with nutrient mixture F12 (DMEM/F12) without nucleosides, containing 10% foetal calf serum, streptomycin (100 µg ml^−1), penicillin (100 µg ml^−1), L-glutamine (2 mM) and Geneticin (G418, 0.2 mg ml^−1) at 37°C in 5% CO2, 95% air. The membrane preparation was initiated by removal of culture medium followed by washing of the cells with phosphate buffered saline and scraped off T75 flasks in ice-cold hypotonic buffer (5 mM Tris–HCl, 2 mM EDTA, pH7.4). Then the cell suspension was homogenized with a polytron, and the homogenate was centrifuged for 10 min at 1000 g. The supernatant was then centrifuged for 30 min at 100 000 g. The membrane pellet was suspended in (i) 50 mM Tris–HCl buffer, pH 7.4, for A1ARs; (ii) 50 mM Tris–HCl, 10 mM MgCl2 buffer, pH 7.4, for A2AARs; and (iii) 50 mM Tris–HCl, 10 mM MgCl2, 1 mM EDTA buffer, pH 7.4, for A3ARs. The cell suspension was incubated with adenosine deaminase for 30 min at 37°C. Then the membrane preparation was used for binding experiments.
(§3) For radioligand binding at A1 ARs 1 nM [3H] CCPA was used, whereas 30 nM of [3H] NECA were used for A2A and 10 nM of [3H]- HEMADO were used for A3 receptors, respectively. Nonspecific binding of [3H]CCPA was determined in the presence of 1 mM theophylline, when [3H]NECA 100 µM R-PIA was used.
(§4) Inhibitory binding constants, Ki, were calculated from the IC50 values according to the Cheng and Prusoff equation Ki = IC50/(1 + [C*]/KD*), where [C*] is the concentration of the radioligand and KD* its dissociation constant. A weighted nonlinear least-squares curve fitting program LIGAND was also used for computer analysis of inhibition experiments. Potency values (IC50) obtained in cyclic AMP assays were calculated by nonlinear regression analysis using the equation for a sigmoid concentration–response curve (Graph Pad Prism, San Diego, CA, USA). All experimental data are expressed as geometric mean with 95% confidence limits in parentheses of three or four independent experiments performed in duplicate.

hA2BAR = target: T2, hA2BAR (Homo sapiens, UniProt P29275); assay: Inhibition of NECA-stimulated adenylyl cyclase activity in CHO cells expressing hA2BAR; format: biochemical; settings: read-out: Ki hA2B (95% CI)
T2 construct: expressed in transfected cells; host or cells: CHO cells (crude membrane pellet)
T2 sequence (P29275 1-332): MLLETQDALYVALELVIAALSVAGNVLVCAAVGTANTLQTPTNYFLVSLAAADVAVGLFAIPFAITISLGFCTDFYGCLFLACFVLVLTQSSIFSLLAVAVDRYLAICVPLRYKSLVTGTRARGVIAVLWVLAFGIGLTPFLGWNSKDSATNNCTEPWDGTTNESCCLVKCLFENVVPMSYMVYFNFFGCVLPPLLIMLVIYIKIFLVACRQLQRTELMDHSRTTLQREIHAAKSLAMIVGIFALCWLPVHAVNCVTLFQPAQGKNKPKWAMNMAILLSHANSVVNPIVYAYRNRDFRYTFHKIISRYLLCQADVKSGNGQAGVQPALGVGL
Experimental: as §2
The potency of antagonists at the A2BAR was determined in adenylyl cyclase experiments. For the measurement of adenylyl cyclase activity, only one high speed centrifugation of the homogenate was used. The resulting crude membrane pellet was resuspended in 50 mM Tris–HCl, pH 7.4 and immediately used for the cyclase assay.
as §4

hA2AAR = target: T3, hA2AAR (Homo sapiens, UniProt P29274); assay: Displacement of specific [3H]NECA binding at hA2AAR expressed in CHO cells; settings: [3H]-NECA displacement, n = 3–6, read-out: Ki hA2A (95% CI)
T3 construct: expressed in transfected cells; host or cells: CHO cells (membrane preparation)
Text: as §1, §2, §3, §4

hA3AR = target: T4, hA3AR (Homo sapiens, UniProt P0DMS8); assay: Displacement of specific [3H]HEMADO binding at hA3AR expressed in CHO cells; settings: for Ki: [3H]-HEMADO displacement, CHO cells, n = 3–6, read-out: Ki hA3 (95% CI); for selectivity hA1/A3: ratio of Ki hA1 to Ki hA3; for selectivity hA2A/A3: ratio of Ki hA2A to Ki hA3 as headed
T4 construct: expressed in transfected cells; host or cells: CHO cells (membrane preparation)
T4 sequence (P0DMS8 1-318): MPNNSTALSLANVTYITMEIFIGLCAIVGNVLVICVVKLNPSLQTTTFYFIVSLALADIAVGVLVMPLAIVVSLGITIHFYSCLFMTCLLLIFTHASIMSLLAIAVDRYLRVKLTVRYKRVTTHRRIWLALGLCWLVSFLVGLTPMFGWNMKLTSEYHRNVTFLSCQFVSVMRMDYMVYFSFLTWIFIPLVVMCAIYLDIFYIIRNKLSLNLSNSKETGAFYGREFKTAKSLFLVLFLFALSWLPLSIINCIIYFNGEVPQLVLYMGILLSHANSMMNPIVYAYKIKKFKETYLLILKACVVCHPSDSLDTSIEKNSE

T3 sequence (P29274 whole entry): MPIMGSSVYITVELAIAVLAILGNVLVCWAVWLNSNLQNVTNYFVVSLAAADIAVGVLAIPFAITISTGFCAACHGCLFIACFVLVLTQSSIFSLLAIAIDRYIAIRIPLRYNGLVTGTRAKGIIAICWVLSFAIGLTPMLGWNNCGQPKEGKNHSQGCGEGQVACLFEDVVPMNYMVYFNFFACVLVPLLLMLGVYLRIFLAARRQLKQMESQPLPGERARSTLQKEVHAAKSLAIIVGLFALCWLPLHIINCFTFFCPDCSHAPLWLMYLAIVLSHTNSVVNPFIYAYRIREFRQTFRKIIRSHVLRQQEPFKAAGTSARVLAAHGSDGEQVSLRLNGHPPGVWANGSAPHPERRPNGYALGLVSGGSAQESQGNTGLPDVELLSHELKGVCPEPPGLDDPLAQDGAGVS

Ki (hA1AR) | Ki (hA2BAR) | Ki (hA2AAR) | Ki (hA3AR) | melting point | selectivity hA1/A3 (hA3AR) | selectivity hA2A/A3 (hA3AR) | Compound
> 100 µM | > 30 µM | 23.8 µM | ~2.6 µM and 2.6 µM |  |  |  | c1ccc(-c2nc3ccccc3s2)c(OCCOc2cccc3cccnc23)c1 [Compound 6a]
> 100 µM | > 20 µM | 17.2 µM | 3.2 µM | 110 to 112 °C | >31.25 | >6.25 | Brc1cc(Br)c2cccnc2c1OCCOc1ccccc1-c1nc2ccccc2s1 [Compound 6b]
30.8 µM | > 20 µM | 32.8 µM | 30.4 µM |  |  |  | Clc1ccc(OCCOc2ccccc2-c2nc3ccccc3s2)c2ncccc12 [Compound 6c]
> 100 µM | > 20 µM | > 20 µM | 5.6 µM | 125 to 127 °C | >17.85 | >3.57 | Clc1cc(I)c(OCCOc2ccccc2-c2nc3ccccc3s2)c2ncccc12 [Compound 6d]
> 100 µM | > 30 µM | > 20 µM | 3.8 µM |  |  |  | c1ccc(-c2nc3ccccc3s2)c(OCCCOc2cccc3cccnc23)c1 [Compound 6e]
> 100 µM | > 30 µM | > 20 µM | 6.2 µM |  |  |  | Brc1cc(Br)c2cccnc2c1OCCCOc1ccccc1-c1nc2ccccc2s1 [Compound 6f]
> 100 µM | > 20 µM | > 20 µM | 4.2 µM |  |  |  | Clc1ccc(OCCCOc2ccccc2-c2nc3ccccc3s2)c2ncccc12 [Compound 6g]
> 100 µM | > 20 µM | > 20 µM | 6.1 µM |  |  |  | Clc1cc(I)c(OCCCOc2ccccc2-c2nc3ccccc3s2)c2ncccc12 [Compound 6h]
29.7 µM | > 20 µM | 34.9 µM | 25.4 µM |  |  |  | c1ccc(-c2nc3ccccc3s2)c(OCCCCOc2cccc3cccnc23)c1 [Compound 6i]
> 100 µM | > 20 µM | > 20 µM | 6.4 µM |  |  |  | Brc1cc(Br)c2cccnc2c1OCCCCOc1ccccc1-c1nc2ccccc2s1 [Compound 6j]
> 100 µM | > 10 µM | > 20 µM | 3.7 µM |  |  |  | Clc1ccc(OCCCCOc2ccccc2-c2nc3ccccc3s2)c2ncccc12 [Compound 6k]
> 100 µM | > 30 µM | > 20 µM | 3.6 µM |  |  |  | Clc1cc(I)c(OCCCCOc2ccccc2-c2nc3ccccc3s2)c2ncccc12 [Compound 6l]
